# Columns and labels:
# Experiment in all cases: relative viability (nuclei count vs DMSO), 5 days (fraction); higher = more cells survive
# [1] = compound: C1COCCN1C2=NC(=NC3=C2OC4=C3C=CC=N4)C5=CC(=CC=C5)NC(=O)C6=CN=C(C=C6)N + COc1cccc2cc(-c3nc([C@H]4CC[C@H](C(=O)O)CC4)n4ncnc(N)c34)[nH]c12 [OSI-027] (partner 0.5 µM)
# In short: (§1)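 One day after seeding in 1536-well plates, lung cancer cell lines were dosed by pin tool. Dosing was either single-drug or a fixed anchor-drug dose plus five library-drug doses (not always all listed) in √10 steps. After 5 days, nuclei were stained in one fix-and-stain step and counted on 4× images, and relative viability is the nuclei count of treated wells over that of vehicle wells, given as the median of duplicate plates.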
# [2] = compound: C1COCCN1C2=NC(=NC3=C2OC4=C3C=CC=N4)C5=CC(=CC=C5)NC(=O)C6=CN=C(C=C6)N + Nc1nc2[nH]cc(CCc3ccc(C(=O)N[C@@H](CCC(=O)O)C(=O)O)cc3)c2c(=O)[nH]1 [Pemetrexed] (partner 0.2 µM)
# In short: as §1
# SGI-1776 + Pictilisib = compound: CN1CCC(CNc2ccc3ncc(-c4cccc(OC(F)(F)F)c4)n3n2)CC1 [SGI-1776] + CS(=O)(=O)N1CCN(Cc2cc3nc(-c4cccc5[nH]ncc45)nc(N4CCOCC4)c3s2)CC1 [Pictilisib] (partner 1 µM)
# In short: as §1
# [3] = compound: C1COCCN1C2=NC(=NC3=C2OC4=C3C=CC=N4)C5=CC(=CC=C5)NC(=O)C6=CN=C(C=C6)N + O=C(CCCCCCC(=O)Nc1ccccc1)NO [Vorinostat] (partner 1 µM)
# In short: as §1
Cell Line,relative viability ([1]; first compound 0.02 µM),relative viability ([1]; first compound 0.06325 µM),relative viability ([1]; first compound 0.2 µM),relative viability ([1]; first compound 0.6325 µM),relative viability ([1]; first compound 2 µM),relative viability ([2]; first compound 0.02 µM),relative viability ([2]; first compound 0.06325 µM),relative viability ([2]; first compound 0.2 µM),relative viability ([2]; first compound 0.6325 µM),relative viability ([2]; first compound 2 µM),relative viability (SGI-1776 + Pictilisib; first compound 0.08 µM),relative viability (SGI-1776 + Pictilisib; first compound 0.8 µM),relative viability (SGI-1776 + Pictilisib; first compound 2.53 µM),relative viability (SGI-1776 + Pictilisib; first compound 8 µM),relative viability ([3]; first compound 0.02 µM),relative viability ([3]; first compound 0.06325 µM),relative viability ([3]; first compound 0.2 µM),relative viability ([3]; first compound 0.6325 µM),relative viability ([3]; first compound 2 µM)
LU99A,0.308,0.288,0.241,0.274,0.267,0.204,0.183,0.223,0.184,0.178,0.29,0.339,0.309,0.28,0.435,0.546,0.365,0.418,0.309
LXF-289,0.814,0.884,0.768,0.748,0.351,0.945,1,0.873,0.923,0.647,0.699,0.837,0.806,0.67,0.792,0.895,0.619,0.821,0.547
NCI-H522,0.75,0.732,0.714,0.687,0.721,0.915,0.966,0.941,0.972,0.963,–,–,–,–,0.831,0.844,0.925,0.865,0.798
NCI-H727,0.542,0.517,0.624,0.588,0.541,–,–,–,–,–,0.398,0.626,0.376,0.285,1.14,1.22,1.05,1.22,1.12
NCI-H1299,–,–,–,–,–,–,–,–,–,–,0.821,0.832,0.596,0.505,–,–,–,–,–
NCI-H1563,0.824,0.766,0.719,0.659,0.706,0.795,0.699,0.767,0.694,0.685,0.707,0.588,0.583,0.467,–,–,–,–,–
NCI-H1623,0.459,0.434,0.447,0.414,0.405,–,–,–,–,–,–,–,–,–,–,–,–,–,–
NCI-H1648,0.285,0.229,0.264,–,0.279,0.743,0.893,0.819,0.754,0.554,–,–,–,–,0.313,0.306,0.42,0.281,0.294
NCI-H1703,–,–,–,–,–,–,–,–,–,–,0.242,0.22,0.251,0.181,–,–,–,–,–
NCI-H1792,0.659,0.684,0.753,0.679,0.42,1.02,0.924,0.586,0.638,0.276,0.282,0.264,0.284,0.231,–,–,–,–,–
NCI-H2342,0.666,0.603,0.661,0.615,0.649,0.839,0.739,0.753,0.796,0.713,–,–,–,–,0.821,0.876,0.849,0.756,0.627
SW 900,0.759,0.492,0.43,0.467,0.357,0.497,0.476,0.455,0.469,0.254,–,–,–,–,0.455,0.573,0.488,0.425,0.392
